The target of one assay is B-DNA (PDB ID: 1BNA). Further details: method as in PMID 36535193, doi:10.1002/aoc.7413. Particulars: previously tested complexes; ref [11],[12]; read-out: Ki (inhibition constant), docking with DNA; cited from earlier work.
Assay [1] has as its system human colorectal carcinoma (SW480). Put plainly: MTT cytotoxicity assay, SW480. Particulars: 48 h; for IC50: read-out: IC50 ± SEM, SW480. The assay is classed as cell-based. As to the method:
(§1) The in vitro cytotoxicity of newly synthesized mono- and heteronuclear platinum(II)/and zinc(II) complexes, featuring a 4,4′,4″-tri-tert-butyl-2,2′:6′,2″-terpyridine ligand (designated as C1–C5), was assessed using MTT assay procedures. This evaluation targeted various cell lines: mouse colorectal carcinoma (CT26), human colorectal carcinoma (HCT116 and SW480), and non-cancerous mouse mesenchymal stem cells (mMSC). These cell lines were exposed to synthesized complexes for 48 h, with concentrations ranging from 1.17 to 150 μM.
(§2) In our study, various cell lines were cultured, including mouse colorectal carcinoma (CT26), human colorectal carcinoma (HCT116 and SW480) obtained from ATCC, USA, and mouse mesenchymal stem cells (mMSC, Gibco), New York, NY, USA). These cell lines were consistently maintained in complete Dulbecco’s Modified Eagle Medium (DMEM) supplemented with 10% fetal bovine serum (FBS) (Sigma Aldrich, St. Louis, MO, USA), 100 IU/mL penicillin, and 100 μg/mL streptomycin antibiotics (Invitrogen, Carlsbad, CA, USA). The cultures were incubated at 37 °C in a humidified atmosphere of 5% carbon dioxide (CO2). […] The viability and count of the cells were determined using Trypan blue staining, ensuring the accuracy and reliability of the experimental outcomes.
(§3) The cytotoxic effects of five newly synthesized complexes, alongside cisplatin, were assessed through the MTT assay method, in line with previously established protocols. During the exponential growth phase, cells were collected from culture flasks, counted, and then seeded in 96-well culture plates at a density of 5·10^3 cells per well. Subsequent treatment involved exposing these cells to varying concentrations of the newly synthesized complexes and cisplatin (ranging from 1.17 to 150 μM) for a duration of 48 h, with fresh complete medium serving as the control. The results were quantified relative to the control (untreated cells), providing a comparative measure of cytotoxicity. Additionally, IC50 values, representing the concentration required to inhibit 50% of the cell viability, were calculated using Microsoft Office Excel 2010. Lastly, the data were presented as percentages of viable cells in accordance with the methodology outlined in the referenced study, facilitating a comprehensive understanding of the anticancer potential of these compounds.

Assay [2] concerns the target T1, Human serum albumin (HSA) (Homo sapiens, UniProt P02768).
T1 construct: reagents in general came from Sigma-Aldrich, Acros Organics or Merck
Put plainly: HSA fluorescence quenching. In kind it is binding. Particulars: for Stern–Volmer constant Ksv, HSA: HSA 2 µM, complex 0–30 µM, PBS pH 7.4, room temperature, λex 295 nm. The source says:
Human serum albumin (HSA) produces a fluorescence signal when excited at 295 nm due to the tryptophan residues. This characteristic makes fluorescence spectroscopy an effective tool for studying complex interactions involving HSA. If the examined complex interacts with HSA, an increasing concentration of the complex will lead to a decrease in fluorescence, as shown in Figure 4 and Figures S14–S17. […] The Stern–Volmer equation (Equation (S2)) was used to determine the Stern–Volmer constant, Ksv, for the HSA interactions.
The binding affinity of the complexes C1–C5 to HSA has been determined through fluorescence quenching experiments. The measurements were conducted in a 0.01 M PBS with a pH of 7.4 at room temperature. The HSA concentration was kept constant at 2 μM while the concentration of complexes C1–C5 was increased from 0 to 30 μM, resulting in a significant decrease in emissions at 352 nm. Before each measurement, the system was shaken at room temperature. The fluorescence intensity was measured with the wavelength of excitation at 295 nm and recorded in the 300 to 500 nm range. The width of the excitation and emission slits (10 nm) and scan rate were maintained at a constant rate. The Stern–Volmer constants, Ksv, were determined by Equation (2).

The test system of another assay is CT-DNA. Put plainly: Ethidium bromide/CT-DNA fluorescence quenching (EB displacement). In kind it is binding. The note with it: EB/CT-DNA 1:1, 5 µM, PBS pH 7.4, room temperature, λex 527 nm, λem 612 nm. The source says: Fluorescent spectroscopy allows the determination of the intercalation potential of compounds. Intercalation involves planar aromatic molecules binding between the base pairs of DNA chains, causing them to elongate. Ethidium bromide (EB) is commonly used as a DNA intercalator and produces high levels of fluorescent emissions at 612 nm when intercalating between DNA strands. However, the addition of compounds that can intercalate between DNA strands and suppress the effects of EB will reduce fluorescent emissions. If a complex is able to replace EB, fluorescence reduction will occur, indicating the complex’s ability to bind intercalatively. Figure 3 and Figures S10–S13 show the results of fluorescence titrations in the presence of intercalator EB, where the emission intensity of a constant CT-DNA/EB solution concentration of 5 µM was monitored with increasing complex concentration up to a ratio of 5.
To determine whether the complex could displace EB from the CT-DNA-EB complex, the interactions of the complex with CT-DNA were examined in the presence of EB. The CT-DNA-EB solution was formed by combining EB and CT-DNA solutions with a concentration of 5 μM at a pH of 7.4. The impact of the complex binding to the CT-DNA was measured by analyzing the fluorescence emission spectrum after the addition of the examined complexes solution in increasing concentration, Figure 3.
The binding affinity of the complexes C1–C5 to CT-DNA via intercalation was determined using fluorescence spectroscopy. All measurements were conducted at room temperature in 0.01 M PBS with a pH of 7.4. Fluorescence measurements were performed by adding increasing complex concentrations (0–50 μM) to a CT-DNA and EB solution. Before each measurement, the system was shaken at room temperature. The fluorescence intensity was measured with the wavelength of excitation at 527 nm and the wavelength of emission at 612 nm. The width of the excitation and emission slits (10 nm) and scan rate were maintained at a constant rate. The emission of the solution was recorded in the range of 550 to 750 nm. The Stern–Volmer constants, Ksv, were determined by Equation (2). I0/I = 1 + Ksv[Q](2) [Q] is the concentration of the complex, I0 and I represent emission intensities in the absence and presence of complex, and Ksv is the Stern–Volmer constant obtained from the slope of the plot of I0/I vs. [Q] [25, 26, 27, 28].

In assay [3] the test system is human colorectal carcinoma (HCT116). Put plainly: MTT cytotoxicity assay, HCT116. In kind it is cell-based. Particulars: 48 h; for IC50: read-out: IC50 ± SEM, HCT 116. As to the method:
as §1, §2, §3

Assay [4] relates to mouse mesenchymal stem cells (mMSC). Put plainly: MTT cytotoxicity assay, mMSC. In kind it is cell-based. Particulars: 48 h, non-cancerous cells, read-out: IC50 ± SEM, mMSCs. As to the method: as §1
In the context of developing low-toxicity drugs, it is imperative to evaluate the antiproliferative activity against normal cells. The in vitro toxicity of the tested complexes toward normal mouse mesenchymal stem cells (mMSC) was examined. […] These findings indicate the possibility of enhanced in vivo tolerance for this complex.
as §2, §3

In assay [5] the test system is mouse colorectal carcinoma (CT26). Briefly: MTT cytotoxicity assay, CT26. The assay is classed as cell-based. Particulars: 48 h; for IC50: read-out: IC50 ± SEM, CT26. As to the method: as §1, §2, §3
In assay [6] the target is T1, Human serum albumin (HSA). On the set-up: method as in earlier work. The note with it: literature value; ref [24]; cited from earlier work.

Read-outs that look alike come from different tables or passages of the source.

This is an account of results in paper PMC10931776, “Modes of Interactions with DNA/HSA Biomolecules and Comparative Cytotoxic Studies of Newly Synthesized Mononuclear Zinc(II) and Heteronuclear Platinum(II)/Zinc(II) Complexes toward Colorectal Cancer Cells” (International Journal of Molecular Sciences, 2024).

T1 sequence (P02768 25-609): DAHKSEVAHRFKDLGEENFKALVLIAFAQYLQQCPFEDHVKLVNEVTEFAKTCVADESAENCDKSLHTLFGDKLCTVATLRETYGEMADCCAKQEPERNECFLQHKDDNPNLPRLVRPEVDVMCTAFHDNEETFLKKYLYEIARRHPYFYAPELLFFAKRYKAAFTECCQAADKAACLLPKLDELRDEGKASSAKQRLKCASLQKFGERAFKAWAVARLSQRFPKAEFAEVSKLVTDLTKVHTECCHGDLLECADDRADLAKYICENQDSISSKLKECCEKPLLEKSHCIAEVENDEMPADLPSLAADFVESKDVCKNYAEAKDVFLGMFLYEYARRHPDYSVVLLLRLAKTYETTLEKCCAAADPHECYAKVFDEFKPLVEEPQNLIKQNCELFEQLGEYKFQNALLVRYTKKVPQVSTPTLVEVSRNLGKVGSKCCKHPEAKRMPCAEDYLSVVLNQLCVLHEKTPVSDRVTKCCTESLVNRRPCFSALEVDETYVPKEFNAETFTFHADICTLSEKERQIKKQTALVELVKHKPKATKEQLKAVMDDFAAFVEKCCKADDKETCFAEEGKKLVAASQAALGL

In the case of “[{trans-PtCl(NH3)2(μ-pyrazine)ZnCl(terpy-Cl)}](ClO4)2 [C2a]”, on B-DNA (PDB ID: 1BNA), the Ki is 231 µM.
With “[{cis-PtCl(NH3)2(μ-pyrazine)ZnCl(terpy-Cl)}](ClO4)2 [C1a]”, the Ki on B-DNA (PDB ID: 1BNA) was 248 µM.
For “[{cis-PtCl(NH3)2(μ-4,4′-bipyridyl)ZnCl(terpy^t^Bu)}](CIO4)2 [C4]”, the “Selectivity Index (IC50 mMSC/IC50), SW480” value (“Selectivity Index … SW480” below) in assay [1] is on record as 0.6. Besides, the IC50 was 94.1 ± 9.89 µM in assay [1], 89.4 ± 6.7 µM in assay [3], 60.3 ± 24.7 µM in assay [4] and 183 ± 72.4 µM in assay [5]. Moreover, the “Stern–Volmer constant Ksv, HSA” value in assay [2] is reported as 22.7 ± 0.1 10^4 M^–1. Moreover, the “Ksv value for HSA, order of magnitude” value in assay [2] (fluorescence quenching of HSA) is reported as ~10^5 M^−1. The “Stern–Volmer constant Ksv, CT-DNA” value in the assay with CT-DNA is 5.2 ± 0.1 10^4 M^–1. Also, in assay [3], the “Selectivity Index (IC50 mMSC/IC50), HCT 116” value (shortened to “Selectivity Index … HCT 116”) came out at 0.7. The “Selectivity Index (IC50 mMSC/IC50), CT26” value in assay [5] is reported as 0.3.
As for “[{cis-PtCl(NH3)2(μ-pyrazine)ZnCl(terpy)}](ClO4)2 [C1b]”, at B-DNA (PDB ID: 1BNA), the Ki is 18.1 µM.
Regarding `CC(C)(C)c1ccnc(-c2cc(C(C)(C)C)cc(-c3cc(C(C)(C)C)ccn3)n2)c1.N.N.[Cl-].[Cl-].[O-][Cl+3]([O-])([O-])[O-].[O-][Cl+3]([O-])([O-])[O-].[Pt+2].[Zn+2].c1cnccn1` [C2, [{cis-PtCl(NH3)2(μ-pyrazine)ZnCl(terpy^t^Bu)}](ClO4)2], the “Selectivity Index … SW480” value in assay [1] is reported as 0.4. The IC50 was found to be 25.7 ± 2.93 µM in assay [1], 26.6 ± 25.9 µM in assay [3], 10.1 ± 0.98 µM in assay [4] and 35.1 ± 39.6 µM in assay [5]. Further, the “Stern–Volmer constant Ksv, HSA” value in assay [2] was 5.8 ± 0.1 10^4 M^–1. In addition, in the assay on CT-DNA, the “Stern–Volmer constant Ksv, CT-DNA” value is 2.9 ± 0.1 10^4 M^–1. Besides, in assay [3], the “Selectivity Index … HCT 116” value is listed as 0.4. Also, the “Selectivity Index (IC50 mMSC/IC50), CT26” value in assay [5] was determined as 0.3.
Take “[{trans-PtCl(NH3)2(μ-4,4′-bipyridyl)ZnCl(terpy-Cl)}](ClO4)2 [C4a]”: on B-DNA (PDB ID: 1BNA), the Ki is 117 µM.
With “[{trans-PtCl(NH3)2(μ-pyrazine)ZnCl(terpy^t^Bu)}](ClO4)2 [C3]”, in assay [1], the “Selectivity Index … SW480” value came to 1.1 and the IC50 turned out to be 68.1 ± 5.21 µM. In addition, the “Stern–Volmer constant Ksv, HSA” value in assay [2] was 4.5 ± 0.1 10^4 M^–1. For the same compound, in the assay on CT-DNA, the “Stern–Volmer constant Ksv, CT-DNA” value is given as 2.1 ± 0.1 10^4 M^–1. In assay [3], the “Selectivity Index … HCT 116” value is 0.4 and the IC50 was determined as 181 ± 105 µM. In addition, the IC50 in assay [4] came to 76.2 ± 12 µM. Also, in assay [5], the “Selectivity Index (IC50 mMSC/IC50), CT26” value came out at 0.4 and the IC50 turned out to be 210 ± 87 µM.
As for `N.N.[Cl][Pt][Cl]` [cisplatin, reference compound], the “Selectivity Index … SW480” value in assay [1] is 0.7. The IC50 in assay [1] came out at 10.1 ± 3.98 µM; in assay [3] it was 14.7 ± 2.21 µM; in assay [4], 7.32 ± 2.51 µM; in assay [5] it was 9.03 ± 3.55 µM. Further, the “Selectivity Index … HCT 116” value in assay [3] turned out to be 0.5. Further, the “Stern–Volmer constant Ksv, HSA” value in assay [6] is listed as 0.24 ** 10^4 M^–1. In assay [5], the “Selectivity Index (IC50 mMSC/IC50), CT26” value is reported as 0.8.
Consider “[{trans-PtCl(NH3)2(μ-4,4′-bipyridyl)ZnCl(terpy)}](ClO4)2 [C4b]”, for which the inhibition constant (Ki) at B-DNA (PDB ID: 1BNA) is 1.22 µM.
In the case of “[{cis-PtCl(NH3)2(μ-4,4′-bipyridyl)ZnCl(terpy)}](ClO4)2 [C3b]”, the Ki at B-DNA (PDB ID: 1BNA) is 1.01 µM.
As for “[{cis-PtCl(NH3)2(μ-4,4′-bipyridyl)ZnCl(terpy-Cl)}](ClO4)2 [C3a]”, the Ki at B-DNA (PDB ID: 1BNA) is 52.1 µM.
As to “[{trans-PtCl(NH3)2(μ-4,4′-bipyridyl)ZnCl(terpy^t^Bu)}](CIO4)2 [C5]”, in assay [1], the “Selectivity Index … SW480” value is 0.5 and the IC50 worked out at 75.4 ± 21.2 µM. In addition, in assay [2], the “Stern–Volmer constant Ksv, HSA” value is recorded as 9.5 ± 0.1 10^4 M^–1. Also, the “Stern–Volmer constant Ksv, CT-DNA” value in the assay on CT-DNA is on record as 2.9 ± 0.1 10^4 M^–1. Also, in assay [3], the “Selectivity Index … HCT 116” value is recorded as 0.3 and the IC50 was 152 ± 26.8 µM. Moreover, in assay [4], the IC50 is 40.2 ± 3.96 µM. In assay [5], the “Selectivity Index (IC50 mMSC/IC50), CT26” value is 0.4 and the half-inhibitory concentration (IC50) is 108 ± 79.9 µM.
For the compound “[{trans-PtCl(NH3)2(μ-pyrazine)ZnCl(terpy)}](ClO4)2 [C2b]”, the Ki at B-DNA (PDB ID: 1BNA) was 16.3 µM.
